Assay: Dynamic PET imaging with [^18F]OXD-2314 in baboons
Format: in vivo
Conditions: for Cerebellum SUV / Cortex SUV / Striatum SUV / Whole Brain SUV: PET time-activity curve, Figure S18; for whole brain peak uptake: n = 1
Method: Dynamic PET imaging was performed in a rhesus macaque (macaca mulatta) monkey following the injection of [^18F]OXD-2314 at baseline (104.9 MBq, n = 1) and was repeated in a second [^18F]OXD-2314 study (115.8 MBq, n = 1) where a displacing dose of unlabeled OXD-2314 (0.5 mg/kg) was administered 10 min after [^18F]OXD-2314 injection to verify the absence of specific binding in NHP brain. Venous blood samples were drawn to characterize the metabolic fate of [^18F]OXD-2314 in the macaque. Dynamic [^18F]OXD-2314 PET imaging was also performed in a male (106.6 MBq, n = 1) and a female (115.8 MBq, n = 1) baboon (papio anubis), and venous blood samples were drawn in both baboons to characterize potential effects of sex on radiometabolism. Bilateral regions of interest were defined on 5–8 contiguous axial image planes for the lateral temporal cerebral cortex, cerebellum, striatum, and whole brain, which were used to sample dynamic [^18F]OXD-2314 PET images to determine the time-varying radioactivity concentration expressed in SUV units. [^18F]OXD-2314 readily entered macaque brain (whole brain peak ~2.2 SUV at ~2 min) and distributed uniformly throughout cortical and subcortical grey matter regions (Fig. 5A). […] Radiometabolite analysis of macaque venous blood identified only one, polar radiometabolite, which increased from 37% at 10 min to 77% at 90 min post-injection and was not likely brain penetrant (Figs. S19, S20).
The rate of uptake and clearance of [^18F]OXD-2314 in the brains of a male and a female baboon were compared (Fig. 6A). Initial whole brain uptake was rapid in both baboons, with peak uptake achieved in ~2 min with an SUV of ~2.8 in the male baboon and an SUV of ~1.9 in the female baboon. […] It is not known whether the higher initial brain uptake of [^18F]OXD-2314 observed in a male baboon is due to sex differences, normal physiologic variability, or the additional variability introduced by the effects of anesthesia. No evidence of elevated uptake or retention in the baboon striatum following [^18F]OXD-2314 injection was observed (Fig. S16), a region where high levels of PSP and CBD pathology are expected. Therefore, the normal brain retention patterns of [^18F]OXD-2314 are unlikely to confound the detection of specific signal from PSP and CBD pathology in human subjects.
NHP imaging studies in a male (13 kg) macaca mulata monkey and male (25.7 kg) and female (14.2 kg) papio anubis baboons were carried out in accordance with the guidelines set forth by the Institutional Animal Care and Use Committee at the University of Pittsburgh. Additional details regarding the maintenance of an active environmental enrichment program for the housed NHPs are described in Supplemental Information. Dynamic [^18F]OXD-2314 PET imaging of the brains of the isoflurane anesthetized NHPs was performed using a Siemens Biograph mCT Flow 64-4 R PET/CT scanner ([…], maximum intrinsic spatial resolution of 4.3 mm FWHM[53]. Following a low-dose CT scan for attenuation correction of PET emission data, [^18F]OXD-2314 was injected intravenously and emission data were acquired in list-mode for a period of 90 min. Emission data were binned into a dynamic series of 32 frames (20 sec-10 min) and reconstructed using filtered back projection with Fourier rebinning (FORE + FBP) with standard corrections applied that included attenuation, scatter, electronics dead-time, and physical decay.

For `CO[C@H]1CCCN(c2ccc(-c3cc4cc(O)ccc4[nH]3)c([18F])n2)C1` [[^18F]OXD-2314], the “Cerebellum SUV” value (Time 2.75 min) was 3.523 SUV, the “Cortex SUV” value (Time 2.75 min) was 3.036 SUV and the “Striatum SUV” value (Time 2.75 min) was 3.616 SUV. The “Whole Brain SUV” value (Time 2.75 min) was 2.828 SUV, the “Cerebellum SUV” value (Time 3.25 min) was 3.2566 SUV and the “Cortex SUV” value (Time 3.25 min) was 2.891 SUV. The “Striatum SUV” value (Time 3.25 min) was 3.337 SUV, the “Whole Brain SUV” value (Time 3.25 min) was 2.7269 SUV and the “Cerebellum SUV” value (Time 3.75 min) was 3.5333 SUV. The “Cortex SUV” value (Time 3.75 min) was 2.848 SUV, the “Striatum SUV” value (Time 3.75 min) was 3.315 SUV and the “Whole Brain SUV” value (Time 3.75 min) was 2.707 SUV. The “Cerebellum SUV” value (Time 4.5 min) was 3.317 SUV, the “Cortex SUV” value (Time 4.5 min) was 2.817 SUV and the “Striatum SUV” value (Time 4.5 min) was 3.072 SUV. The “Whole Brain SUV” value (Time 4.5 min) was 2.623 SUV, the “Cerebellum SUV” value (Time 5.5 min) was 2.973 SUV and the “Cortex SUV” value (Time 5.5 min) was 2.612 SUV. The “Striatum SUV” value (Time 5.5 min) was 3.02 SUV, the “Whole Brain SUV” value (Time 5.5 min) was 2.516 SUV and the “Cerebellum SUV” value (Time 6.5 min) was 2.884 SUV. For the same compound, the “Cortex SUV” value (Time 6.5 min) was 2.534 SUV, the “Striatum SUV” value (Time 6.5 min) was 2.784 SUV and the “Whole Brain SUV” value (Time 6.5 min) was 2.429 SUV. The “Cerebellum SUV” value (Time 8 min) was 2.424 SUV, the “Cortex SUV” value (Time 8 min) was 2.368 SUV and the “Striatum SUV” value (Time 8 min) was 2.423 SUV. The “Whole Brain SUV” value (Time 8 min) was 2.257 SUV, the “Cerebellum SUV” value (Time 10 min) was 2.417 SUV and the “Cortex SUV” value (Time 10 min) was 2.197 SUV. For the same compound, the “Striatum SUV” value (Time 10 min) was 2.581 SUV, the “Whole Brain SUV” value (Time 10 min) was 2.094 SUV and the “Cerebellum SUV” value (Time 12 min) was 2.068 SUV. The “Cortex SUV” value (Time 12 min) was 2.057 SUV, the “Striatum SUV” value (Time 12 min) was 2.198 SUV and the “Whole Brain SUV” value (Time 12 min) was 1.998 SUV. The “Cerebellum SUV” value (Time 14 min) was 2.062 SUV, the “Cortex SUV” value (Time 14 min) was 1.889 SUV and the “Striatum SUV” value (Time 14 min) was 1.943 SUV. The “Whole Brain SUV” value (Time 14 min) was 1.8928 SUV, the “Cerebellum SUV” value (Time 17.5 min) was 1.827 SUV and the “Cortex SUV” value (Time 17.5 min) was 1.768 SUV. For the same compound, the “Striatum SUV” value (Time 17.5 min) was 1.893 SUV, the “Whole Brain SUV” value (Time 17.5 min) was 1.748 SUV and the “Cerebellum SUV” value (Time 22.5 min) was 1.519 SUV. For the same compound, the “Cortex SUV” value (Time 22.5 min) was 1.5637 SUV, the “Striatum SUV” value (Time 22.5 min) was 1.618 SUV and the “Whole Brain SUV” value (Time 22.5 min) was 1.572 SUV. For the same compound, the “Cerebellum SUV” value (Time 27.5 min) was 1.345 SUV, the “Cortex SUV” value (Time 27.5 min) was 1.403 SUV and the “Striatum SUV” value (Time 27.5 min) was 1.574 SUV. The “Whole Brain SUV” value (Time 27.5 min) was 1.421 SUV, the “Cerebellum SUV” value (Time 32.5 min) was 1.261 SUV and the “Cortex SUV” value (Time 32.5 min) was 1.245 SUV. For the same compound, the “Striatum SUV” value (Time 32.5 min) was 1.235 SUV, the “Whole Brain SUV” value (Time 32.5 min) was 1.295 SUV and the “Cerebellum SUV” value (Time 37.5 min) was 1.135 SUV. The “Cortex SUV” value (Time 37.5 min) was 1.17 SUV, the “Striatum SUV” value (Time 37.5 min) was 1.248 SUV and the “Whole Brain SUV” value (Time 37.5 min) was 1.205 SUV. For the same compound, the “Cerebellum SUV” value (Time 42.5 min) was 1.059 SUV, the “Cortex SUV” value (Time 42.5 min) was 1.067 SUV and the “Striatum SUV” value (Time 42.5 min) was 1.112 SUV. For the same compound, the “Whole Brain SUV” value (Time 42.5 min) was 1.107 SUV, the “Cerebellum SUV” value (Time 47.5 min) was 1.003 SUV and the “Cortex SUV” value (Time 47.5 min) was 0.9766 SUV. For the same compound, the “Striatum SUV” value (Time 47.5 min) was 0.9755 SUV, the “Whole Brain SUV” value (Time 47.5 min) was 1.028 SUV and the “Cerebellum SUV” value (Time 52.5 min) was 0.8116 SUV. For the same compound, the “Cortex SUV” value (Time 52.5 min) was 0.9384 SUV, the “Striatum SUV” value (Time 52.5 min) was 0.9527 SUV and the “Whole Brain SUV” value (Time 52.5 min) was 0.9734 SUV. For the same compound, the “Cerebellum SUV” value (Time 57.5 min) was 0.7605 SUV, the “Cortex SUV” value (Time 57.5 min) was 0.8664 SUV and the “Striatum SUV” value (Time 57.5 min) was 0.8933 SUV. For the same compound, the “Whole Brain SUV” value (Time 57.5 min) was 0.9139 SUV, the “Cerebellum SUV” value (Time 62.5 min) was 0.7211 SUV and the “Cortex SUV” value (Time 62.5 min) was 0.8233 SUV. For the same compound, the “Striatum SUV” value (Time 62.5 min) was 0.8081 SUV, the “Whole Brain SUV” value (Time 62.5 min) was 0.8807 SUV and the “Cerebellum SUV” value (Time 67.5 min) was 0.724 SUV. For the same compound, the “Cortex SUV” value (Time 67.5 min) was 0.803 SUV, the “Striatum SUV” value (Time 67.5 min) was 0.7461 SUV and the “Whole Brain SUV” value (Time 67.5 min) was 0.8223 SUV. For the same compound, the “Cerebellum SUV” value (Time 72.5 min) was 0.6837 SUV, the “Cortex SUV” value (Time 72.5 min) was 0.7452 SUV and the “Striatum SUV” value (Time 72.5 min) was 0.6547 SUV. For the same compound, the “Whole Brain SUV” value (Time 72.5 min) was 0.7875 SUV, the “Cerebellum SUV” value (Time 77.5 min) was 0.6351 SUV and the “Cortex SUV” value (Time 77.5 min) was 0.7071 SUV. The “Striatum SUV” value (Time 77.5 min) was 0.5968 SUV, the “Whole Brain SUV” value (Time 77.5 min) was 0.7547 SUV and the “Cerebellum SUV” value (Time 82.5 min) was 0.6873 SUV. The “Cortex SUV” value (Time 82.5 min) was 0.6833 SUV, the “Striatum SUV” value (Time 82.5 min) was 0.7378 SUV and the “Whole Brain SUV” value (Time 82.5 min) was 0.7187 SUV. For the same compound, the “Cerebellum SUV” value (Time 87.5 min) was 0.5841 SUV, the “Cortex SUV” value (Time 87.5 min) was 0.6805 SUV and the “Striatum SUV” value (Time 87.5 min) was 0.6765 SUV. The “Whole Brain SUV” value (Time 87.5 min) was 0.6934 SUV, the “time to peak whole brain uptake” value (both baboons) was ~ 2 min and the “2:90 min SUV ratio” value (female baboon) was ~ 3.6. For the same compound, the “whole brain peak uptake” value (female baboon) was ~ 1.9 SUV, the “2:90 min SUV ratio” value (male baboon) was ~ 3.7 and the “whole brain peak uptake” value (male baboon) was ~ 2.8 SUV.

— PMC11178805, “Ligand-based design of [^18F]OXD-2314 for PET imaging in non-Alzheimer’s disease tauopathies” (Nature Communications, 2024)
